Data on 3 compounds can be found in patent EP0889886B1, “NOVEL PHENANTHRIDINES SUBSTITUTED IN THE 6 POSITION” (ALTANA Pharma AG, priority 1996, dated 1997).

This experiment deals with PDE IV. Kind of experiment: Inhibition of PDE IV activity (method of Bauer and Schwabe, adapted to microtiter plates). The experiment is classed as biochemical. To be noted: Hemmung der PDE IV-Aktivität.
Procedure: Hierbei erfolgt im ersten Schritt die PDE-Reaktion. In einem zweiten Schritt wird das entstandene 5'-Nukleotid durch eine 5'-Nukleotidase des Schlangengiftes von Crotalus Atrox zum ungeladenen Nukleosid gespalten. Im dritten Schritt wird das Nukleosid auf lonenaustauschsäulen vom verbliebenen geladenen Substrat getrennt. Die Säulen werden mit 2 ml 30 mM Ammoniumformiat (pH 6,0) direkt in Minivials eluiert, in die noch 2 ml Szintillatorflüssigkeit zur Zählung gegeben wird.
With `CCOc1cc2c(cc1OCC)[C@H]1CCCC[C@H]1N=C2c1ccc(N(C(C)=O)S(=O)(=O)c2ccc(C)cc2)cc1` (racemic) [Verbindung 35, (+/-)-cis-8,9-Diethoxy-6-[(N-acetyl-4-p-toluolsulfonamido]phenyl]-1,2,3,4,4a,10b-hexahydrophenanthridin], the “-log IC50” value came to 7.81.

As for `CCOc1cc2c(cc1OC)C(c1ccc(N(C)S(=O)(=O)c3ccc(C)cc3)cc1)=N[C@@H]1CCCC[C@H]21` (racemic) [Verbindung 36, (+/-)-cis-9-Ethoxy-8-methoxy-6-[(N-methyl-4-p-toluolsulfonamido)phenyl]-1,2,3,4,4a,10bhexahydrophenanthridin], the “-log IC50” value worked out at 9.09.

Turning to `CCOc1cc2c(cc1OCC)[C@@H]1CCCC[C@@H]1N=C2c1ccc(O)cc1` (racemic) [Verbindung 37, (+/-)-cis-8,9-Diethoxy-6-(4-hydroxyphenyl)-1,2,3,4,4a,10b-hexahydrophenanthridin], the “-log IC50” value is 8.04.
